Assay results reported in ChEMBL document CHEMBL1201862, “PubChem BioAssay data set” (2004).
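All cell lines were grown in 96-well plates and treated with compound for 48 hours. GI50 marks 50% less growth.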 The source made the active and inactive calls. No stated cut-off is given here; in the data, active = GI50 up to about 1.1 µM and inactive = higher.

Tests used:
Experiment in all cases: NCI tumour cell line growth inhibition, 48 h
[1] = system: SK-MEL-28
[2] = system: RPMI-8226
[3] = system: MOLT-4
[4] = system: MDA-N
[5] = system: DU-145
[6] = system: SK-OV-3
[7] = system: TK-10
[8] = system: HOP-62
[9] = system: A498
[10] = system: SF-295
[11] = system: SN12C
[12] = system: SF-539
[13] = system: Malme-3M
[14] = system: OVCAR-4
[15] = system: NCI-H23
[16] = system: HOP-92
[17] = system: OVCAR-8
[18] = system: LOX IMVI
[19] = system: MDA-MB-231
[20] = system: HCC 2998

Measured: GI50

c1ccc(CCCNc2nnnc3ccccc23)cc1
inactive: [1] > 100 µM | [2] 35.8 µM | [3] 35.6 µM | [4] 69 µM | [5] > 100 µM | [6] > 100 µM | [7] > 100 µM | [8] > 100 µM | [9] > 100 µM | [10] 44.2 µM | [11] > 100 µM | [12] 57 µM | [13] 58.2 µM | [14] 38.9 µM | [15] 70.3 µM | [16] > 100 µM | [17] > 100 µM | [18] 99.5 µM | [19] > 100 µM

O=C(O)C(Cc1ccccc1-c1ccccc1)C(=O)O
inactive: [1] > 100 µM | [2] > 100 µM | [3] > 100 µM | [4] > 100 µM | [5] > 100 µM | [7] > 100 µM | [9] > 100 µM | [10] 86.7 µM | [11] > 100 µM | [12] > 100 µM | [13] > 100 µM | [14] > 100 µM | [15] > 100 µM | [16] > 100 µM | [17] > 100 µM | [18] > 100 µM | [19] > 100 µM

Cc1ccc(S(=O)(=O)N2CC2CCCCC=O)cc1 (centres undefined)
inactive: [1] > 100 µM | [2] 37.8 µM | [3] 37.4 µM | [4] > 100 µM | [5] > 100 µM | [6] > 100 µM | [7] > 100 µM | [8] > 100 µM | [9] > 100 µM | [10] > 100 µM | [11] > 100 µM | [13] > 100 µM | [14] > 100 µM | [15] > 100 µM | [16] > 100 µM | [17] > 100 µM | [18] 20.1 µM | [19] > 100 µM

Cc1c/c(=N\c2ccc3c(c2)c(N)cc(C)[n+]3C)nc(N)n1C
inactive: [1] > 100 µM | [2] > 100 µM | [3] > 100 µM | [4] > 100 µM | [5] > 100 µM | [6] > 100 µM | [7] > 100 µM | [8] 87.7 µM | [9] > 100 µM | [10] > 100 µM | [11] 92.7 µM | [12] > 100 µM | [13] > 100 µM | [14] > 100 µM | [15] > 100 µM | [16] > 100 µM | [17] 86.3 µM | [18] > 100 µM | [19] > 100 µM

COc1ccc(C(O)c2ccccn2)cc1 (centres undefined)
inactive: [1] > 100 µM | [2] > 100 µM | [3] > 100 µM | [4] > 100 µM | [5] > 100 µM | [6] > 100 µM | [7] > 100 µM | [8] > 100 µM | [9] > 100 µM | [10] > 100 µM | [11] > 100 µM | [12] > 100 µM | [13] > 100 µM | [14] > 100 µM | [15] > 100 µM | [16] > 100 µM | [17] > 100 µM | [18] > 100 µM | [19] > 100 µM

Clc1ccc(OCC2NC3C=CC32)cn1 (centres undefined)
inactive: [1] > 100 µM | [2] 34.4 µM | [3] 56 µM | [4] > 100 µM | [5] > 100 µM | [6] > 100 µM | [7] > 100 µM | [8] > 100 µM | [10] > 100 µM | [11] > 100 µM | [12] > 100 µM | [13] > 100 µM | [14] > 100 µM | [15] > 100 µM | [16] 67 µM | [17] > 100 µM | [18] > 100 µM | [19] > 100 µM | [20] > 100 µM

O=[N+]([O-])c1ccc2c3c1[C@@H]1O[C@@H]1c1cccc(c1-3)[C@@H]1O[C@H]21
inactive: [1] 3.1 µM | [2] 1.88 µM | [3] 4.69 µM | [4] 3.04 µM | [5] 3.1 µM | [6] 17.4 µM | [7] 7.78 µM | [8] 10.2 µM | [9] 3.23 µM | [10] 11 µM | [11] 2.71 µM | [12] 2.02 µM | [13] 3.49 µM | [14] 3.35 µM | [15] 3.94 µM | [16] 9.46 µM | [17] 2.04 µM | [18] 1.27 µM | [19] 6.44 µM

NNS(=O)(=O)c1cc(C(=O)O)cc(C(=O)O)c1
inactive: [1] > 100 µM | [2] > 100 µM | [3] > 100 µM | [4] > 100 µM | [5] > 100 µM | [6] > 100 µM | [7] > 100 µM | [8] > 100 µM | [9] > 100 µM | [10] > 100 µM | [11] > 100 µM | [12] > 100 µM | [13] > 100 µM | [14] > 100 µM | [15] > 100 µM | [16] > 100 µM | [17] > 100 µM | [18] > 100 µM | [19] > 100 µM
